Results as given in patent US5846978A, “HIV protease inhibitors useful for the treatment of AIDS” (Merck & Co., Inc., priority 1997, dated 1998).

Experiments:
HIV protease [1] = target: T1, HIV protease (Human immunodeficiency virus type 1 group M subtype B, UniProt P12497); assay: Assay for Inhibition of Microbial Expressed HIV Protease (peptide substrate cleavage, HPLC); type: biochemical; details: for IC50 / % inhibition: pH 5.5, 30° C., 1 hour; for % inhibition: concentration not given
T1 construct: made in house; host or cells: Escherichia coli
Experimental: Assay for Inhibition of Microbial Expressed HIV Protease
Inhibition studies of the reaction of the protease expressed in Eschericia coli with a peptide substrate [Val-Ser-Gln-Asn-(betanapthyl)Ala-Pro-Ile-Val, 0.5 mg/mL at the time the reaction is initiated] were in 50 mM Na acetate, pH 5.5, at 30° C. for 1 hour. Various concentrations of inhibitor in 1.0 μl DMSO were added to 25 μl of the peptide solution in water. The reaction is initiated by the addition of 15 μl of 0.33 nM protease (0.11 ng) in a solution of 0.133M Na acetate pH 5.5 and 0.1% bovine serum albumin. The reaction was quenched with 160 μl of 5% phosphoric acid. Products of the reaction were separated by HPLC (VYDAC wide pore 5 cm C-18 reverse phase, acetonitrile gradient, 0.1% phosphoric acid). The extent of inhibition of the reaction was determined from the peak heights of the products. […] [drawing 61] 5(RS)-((4')-2"-furanyl)methylpheny-9(RS)-hydroxy-1(RS)-hydroxy-methyl-3-(2' -methylpropyl-3-azabicyclo[3.3.1]nonan-7-one (Compound 10, Table 1) [drawing 62]

HIV protease [2] = target: T1, HIV protease; assay: as above; type: biochemical; details: concentration printed as (8.8) μM (column head 'Enzyme concentration (μM)'); pH 5.5, 30° C., 1 hour

Question: Which inhibition at 250 µM (HIV protease [1]; pH 5.5) does the source give for `O=C1CC2(CO)CN(CC3CC3)CC(Cc3ccccc3)(C1)C2O` (stereo not shown) [Compound 2] here?
Answer: 56%

Question: With `CC(C)(C)CN1CC2(CO)CC(=O)CC(Cc3ccccc3)(C1)C2O` (stereo not shown) [Compound 3] as the compound, how does the inhibition at 250 µM (HIV protease [1]; pH 5.5) read?
Answer: 69%

Question: `O=C1CC2(CO)CN(Cc3ccccc3)CC(Cc3ccccc3)(C1)C2O` (stereo not shown) [Compound 4] was tested. Which inhibition at 250 µM (HIV protease [1]; pH 5.5) did it give?
Answer: 82%

Question: With `CC(C)CN1CC2(CO)CC(=O)CC(Cc3ccccc3)(C1)C2O` (stereo not shown) [Compound 5] as the compound, how does the inhibition at 250 µM (HIV protease [1]; pH 5.5) read?
Answer: 63%

Question: `CC(C)CN1CC2(CO)CC(=O)CC(Cc3ccc(Br)cc3)(C1)C2O` (stereo not shown) [Compound 6] was tested. Which inhibition at 250 µM (HIV protease [1]; pH 5.5) did it give?
Answer: 71%

Question: And the IC50 (HIV protease [1])?
Answer: 244 µM

Question: With `COc1ccccc1-c1ccc(CC23CC(=O)CC(CO)(CN(CC(C)C)C2)C3O)cc1` (stereo not shown) [Compound 7] as the compound, how does the inhibition at 100 µM (HIV protease [1]; pH 5.5) read?
Answer: 56%

Question: Which “% inhibition” value (HIV protease [1]) does the source give for `CC(C)CCN1CC2(CO)CC(=O)CC(Cc3ccccc3)(C1)C2O` (stereo not shown) [Compound 8] here?
Answer: 68%

Question: How did the IC50 (HIV protease [1]) turn out when `O=C1CC2(CO)CN(CC3CCCC3)CC(Cc3ccccc3)(C1)C2O` (stereo not shown) [Compound 9] was run?
Answer: 89 µM

Question: How did the inhibition at 100 µM (HIV protease [1]; pH 5.5) turn out when `CC(C)CN1CC2(CO)CC(=O)CC(Cc3ccc(-c4ccco4)cc3)(C1)C2O` (stereo not shown) [Compound 10] was run?
Answer: 62%

Question: Which inhibition at 100 µM (HIV protease [1]; pH 5.5) does the source give for `CC(C)(C)N1CC2(CO)CC(=O)CC(Cc3ccccc3Br)(C1)C2O` (stereo not shown) [Compound 11] here?
Answer: 76%

Question: And the IC50 (HIV protease [1])?
Answer: 30 µM

Question: With `CC(C)(C)N1CC2(CO)CC(=O)CC(Cc3ccc4ccccc4c3)(C1)C2O` (stereo not shown) [Compound 12] as the compound, how does the inhibition at 100 µM (HIV protease [1]; pH 5.5) read?
Answer: 43%

Question: What does the source list for `CC(C)C[C@@H](CO)CN1CC2(CO)CC(=O)CC(Cc3ccccc3)(C1)C2O` (stereo partly shown) [Compound 13]?
Answer: % inhibition (HIV protease [1]): 75%; IC50 (HIV protease [1]): 44 µM

Question: For `CC(C)C[C@H](CO)CN1CC2(CO)CC(=O)CC(Cc3ccccc3)(C1)C2O` (stereo partly shown) [Compound 14], which “% inhibition” value (HIV protease [1]) is on record?
Answer: 62%

Question: With `CCCCC(O)C12CC(=O)CC(Cc3ccccc3)(CN(CC(C)C)C1)C2O` (stereo not shown) [Compound 15] as the compound, how does the inhibition at 100 µM (HIV protease [1]; pH 5.5) read?
Answer: 73%

Question: What about the IC50 (HIV protease [1]) of the same compound?
Answer: 14 µM

Question: For `CC(C)CN1CC2(Cc3ccccc3)CC(=O)CC(C(O)Cc3ccccc3)(C1)C2O` (stereo not drawn) [Compound 16, 5(RS)-methylphenyl-9(RS)-hydroxy-1(RS)-((1'-hydroxy)-2'-phenyl)-ethyl-3-(2"-methyl)propyl-3-azabicyclo[3.3.1] nonan-7-one], which “% inhibition” value (HIV protease [2]) is on record?
Answer: 82%

Question: What about the IC50 (HIV protease [1]) of the same compound?
Answer: 50 µM

Question: For `O=C1CC2(Cc3ccccc3)CN(Cc3ccccc3)CC(C(O)C#Cc3ccccc3)(C1)C2O` (stereo not shown) [Compound 17], which inhibition at 50 µM (HIV protease [1]; pH 5.5) is on record?
Answer: 52%

Question: With `O=C1CC2(Cc3ccccc3)CN(Cc3ccccc3)CC(C(O)Cc3ccccc3)(C1)C2O` (stereo not drawn) [Compound 18, 5(RS)-methylpheny-9(RS)-hydroxy-1(RS)-((1'-hydroxy)-2'-phenyl)-ethyl-3-benzyl-3-azabicyclo[3.3.1]nonan-7-one] as the compound, how does the inhibition at 50 µM (HIV protease [1]; pH 5.5) read?
Answer: 63%

Question: Which inhibition at 50 µM (HIV protease [1]; pH 5.5) does the source give for `CC(C)(C)N1CC2(Cc3ccccc3)CC(=O)CC(C(O)Cc3ccccc3)(C1)C2O` (stereo not shown) [Compound 19] here?
Answer: 44%

Question: `CC(C)CN1CC2(Cc3ccccc3)CC(=O)CC(C(O)Cc3ccccc3N)(C1)C2O` (stereo not shown) [Compound 20] was tested. Which inhibition at 100 µM (HIV protease [1]; pH 5.5) did it give?
Answer: 93%

Question: What about the IC50 (HIV protease [1]) of the same compound?
Answer: 1.6 µM

Question: For `O=C1CC2(Cc3ccccc3)CN(CC3CCCC3)CC(C(O)Cc3ccccc3)(C1)C2O` (stereo not shown) [Compound 21], which inhibition at 25 µM (HIV protease [1]; pH 5.5) is on record?
Answer: 80%

Question: What about the IC50 (HIV protease [1]) of the same compound?
Answer: 1.8 µM

Question: What does the source list for `O=C1CC2(Cc3ccccc3)CN(CC3CCCO3)CC(C(O)Cc3ccccc3)(C1)C2O` (stereo not shown) [Compound 22]?
Answer: inhibition at 100 µM (HIV protease [1]; pH 5.5): 84%; IC50 (HIV protease [1]): 10.4 µM

Question: What does the source list for `O=C1CC2(Cc3ccccc3)CN(Cc3ccccc3)CC(C(O)CN3CCCCS3(=O)=O)(C1)C2O` (stereo not shown) [Compound 23]?
Answer: inhibition at 100 µM (HIV protease [1]; pH 5.5): 69%; IC50 (HIV protease [1]): 29 µM
